Reference: ChEMBL document CHEMBL5321213, “Nicolaioidesin C: An Antiausterity Agent Shows Promising Antitumor Activity in a Pancreatic Cancer Xenograft Mouse Model” (J Nat Prod, 2023)

Columns and labels:
Type in all cases: functional
MIA PaCa-2 [1] = assay: Antitumor activity against human MIA PaCa-2 cells xenografted in athymic BALB/c-nu mouse assessed as fold change in cytosine level in tumor at 10 mg/kg/day, ip administered five times per week for 4 weeks by LC-MS analysis
PANC-1 [2] = assay: Antimetastatic activity in human PANC-1 cells in nutrient-rich medium assessed as open wound area at 20 uM measured every 15 mins for 24 hrs by live cell imaging analysis (reference value: 16%)
MIA PaCa-2 [3] = assay: Antitumor activity against human MIA PaCa-2 cells xenografted in athymic BALB/c-nu mouse assessed as fold change in cytidine 5'-monophosphate-N-acetylneuraminic acid level in tumor at 10 mg/kg/day, ip administered five times per week for 4 weeks by LC-MS analysis
MIA PaCa-2 [4] = assay: Antitumor activity against human MIA PaCa-2 cells xenografted in athymic BALB/c-nu mouse assessed as tumor wet weight at 2 mg/kg/day, ip administered five times per week for 4 weeks (reference value: 368 mg)
MIA PaCa-2 [5] = assay: Antitumor activity against human MIA PaCa-2 cells xenografted in athymic BALB/c-nu mouse assessed as fold change in D-glucosamine 6-phosphate level in tumor at 10 mg/kg/day, ip administered five times per week for 4 weeks by LC-MS analysis
MIA PaCa-2 [6] = assay: Antitumor activity against human MIA PaCa-2 cells xenografted in athymic BALB/c-nu mouse assessed as fold change in uracil level in tumor at 10 mg/kg/day, ip administered five times per week for 4 weeks by LC-MS analysis
PANC-1 [7] = assay: Antimetastatic activity in human PANC-1 cells in nutrient-rich medium assessed as open wound area at 20 uM measured every 15 mins for 48 hrs by live cell imaging analysis relative to control
MIA PaCa-2 [8] = assay: Antitumor activity against human MIA PaCa-2 cells xenografted in athymic BALB/c-nu mouse assessed as fold change in cytidine 5'-monophosphate level in tumor at 2 mg/kg/day, ip administered five times per week for 4 weeks by LC-MS analysis
MIA PaCa-2 [9] = assay: Antitumor activity against human MIA PaCa-2 cells xenografted in athymic BALB/c-nu mouse assessed as fold change in leucine level in tumor at 10 mg/kg/day, ip administered five times per week for 4 weeks by LC-MS analysis
PANC-1 [10] = assay: Antimetastatic activity in human PANC-1 cells in DMEM media assessed as inhibition of colony formation at 40 uM incubated for 24 hrs followed by replacement with fresh medium and measured after 10 days by crystal violet staining-based assay relative to control

SMILES: COc1cc(O)c(C(=O)[C@@H]2CC=C(CCC=C(C)C)C[C@H]2c2ccccc2)c(O)c1
- fold change (FC) (MIA PaCa-2 [1]): 0.44
- Activity (PANC-1 [2]): 36%
- fold change (FC) (MIA PaCa-2 [3]): 0.31
- Activity (MIA PaCa-2 [4]): 181 mg
- fold change (FC) (MIA PaCa-2 [5]): 0.36
- fold change (FC) (MIA PaCa-2 [6]): 0.09
- Activity (PANC-1 [7]): 24%
- fold change (FC) (MIA PaCa-2 [8]): 0.4
- fold change (FC) (MIA PaCa-2 [9]): 0.41
- inhibition at 40 µM (PANC-1 [10]): 92%
